The text below walks through data of patent publication US20230089073A1 (Carmot Therapeutics, Inc., priority 2021, published 2023).

The term EC50 denotes the concentration that produces a half-maximal response.

For one assay, the system named is cynomolgus monkeys. Description: Intravenous Glucose Tolerance Test (IVGTT) in Cynomolgus Monkeys. The assay is classed as in vivo, cynomolgus monkeys (Macaca fascicularis). The following applies: test article intravenous bolus 1-6 minutes prior to IV glucose 0.5 g/kg, plasma insulin 0-60 minutes, FIG. 1. How it is done:
Intravenous Glucose Tolerance Test (IVGTT) in Cynomolgus Monkeys
Aged ([…]) cynomolgus monkeys (Macaca fascicularis; N=4-5/test article) were fasted overnight and anesthetized with ketamine prior to the intravenous glucose tolerance test (IVGTT). The test articles were formulated at 6 mg/mL in vehicle (5% polyethylene glycol 400: 95% (12% (w/v) sulfobutylether-β-cyclodextrin in deionized water) (v/v)]) and administered by intravenous bolus into a peripheral vein 1-6 minutes prior to the IVGTT. The IVGTT was initiated by administration of an IV bolus of glucose (0.5 g/kg as a 50% glucose solution). Blood samples were collected from a peripheral vein 0, 1, 3, 5, 10, 20, 40 and 60 minutes upon completion of the IV bolus glucose injection. The blood samples were collected directly into potassium ethylene diamine tetra-acetic acid tubes and plasma separated by centrifugation at 2,500 g for 10 minutes within 30 minutes of collection. The plasma from all time points was analyzed for insulin concentrations ([…]) using a Cobas e411 Immunology analyzer. Insulin area-under-the-curve (AUC) was calculated using GraphPad Prism software (v 9).

A further assay concerns the target T1, human GLP-1 receptor (Homo sapiens, UniProt P43220).
T1 construct: expressed in transfected cells
Description: GLP-1R cAMP Assay. The assay is classed as cell-based. The conditions noted are these: cAMP accumulation in CHO cells stably overexpressing the human GLP-1 receptor; 30 min treatment; HitHunter cAMP kit; read-out: EC50. In outline: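 Luminescent enzyme-complementation detection of cAMP, read after cell lysis and overnight incubation, with dose-response curve fitting. Stimulation lasted 30 min, using 20-point triplicate dosing on CHO cells (10,000 per well) stably overexpressing human GLP-1R.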

T1 sequence (P43220 24-463): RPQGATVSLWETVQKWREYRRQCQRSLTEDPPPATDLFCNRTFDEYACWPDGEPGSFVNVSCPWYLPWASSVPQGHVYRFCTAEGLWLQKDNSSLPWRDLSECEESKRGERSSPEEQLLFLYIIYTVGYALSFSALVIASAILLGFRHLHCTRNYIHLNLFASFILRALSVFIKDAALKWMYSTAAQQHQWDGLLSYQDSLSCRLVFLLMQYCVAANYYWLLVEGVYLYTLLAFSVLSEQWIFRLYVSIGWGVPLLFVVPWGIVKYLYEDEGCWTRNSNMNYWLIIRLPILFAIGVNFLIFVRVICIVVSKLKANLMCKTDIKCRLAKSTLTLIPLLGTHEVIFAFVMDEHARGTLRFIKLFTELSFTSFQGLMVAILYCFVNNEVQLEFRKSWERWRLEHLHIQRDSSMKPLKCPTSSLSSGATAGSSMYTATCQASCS

As to `C[C@H]1C[C@@H](Oc2ccnc(COc3ccc(C#N)cc3F)n2)CCN1Cc1nc2ccc(C(=O)O)cc2n1C[C@@H]1CCO1` [Example 313, 2-(((2S,4S)-4-((2-((4-Cyano-2-fluorophenoxy)methyl)pyrimidin-4-yl)oxy)-2-methylpiperidin-1-yl)methyl)-1-(((S)-oxetan-2-yl)methyl)-1H-benzo[d]imidazole-6-carboxylic acid], the “insulin AUC (insulin secretion)” value in the assay with cynomolgus monkeys was “substantial increase”. The EC50 at human GLP-1 receptor is below 50 nM. Take `CCn1cncc1Cn1c(CN2CCN(C(=O)c3cnc(COc4ccc(Cl)cc4Cl)o3)CC2)nc2ccc(C(=O)O)cc21` [Compound 156, 2-[(4-{2-[(2,4-dichlorophenoxy)methyl]-1,3-oxazole-5-carbonyl}piperazin-1-yl)methyl]-1-[(1-ethyl-1H-imidazol-5-yl)methyl]-1H-1,3-benzodiazole-6-carboxylic acid]: the EC50 on human GLP-1 receptor is below 50 nM. Still for that read-out and setting: the result for `O=C(O)c1ccc2nc(CN3CCN(Cc4ccc(COc5ccccc5)o4)CC3)n(C[C@@H]3CCO3)c2c1` [Example 20, (S)-1-(Oxetan-2-ylmethyl)-2-((4-((5-(phenoxymethyl)furan-2-yl)methyl)piperazin-1-yl)methyl)-1H-benzo[d]imidazole-6-carboxylic acid] reads above 500 nM; that for `CCn1cncc1Cn1c(CN2CCC([C@@H](F)c3cccc(COc4ccc(Cl)cc4Cl)c3)CC2)nc2ccc(C(=O)O)cc21` (single isomer, unassigned) [Compound 203], below 50 nM. For `CCn1cncc1Cn1c(CN2CCC([C@@H](OC)c3cccc(COc4ccc(Cl)cc4Cl)c3)CC2)nc2ccc(C(=O)O)cc21` (single isomer, unassigned) [Example 204], the EC50 on human GLP-1 receptor lay in the range of 50 to 500 nM. Same read-out and setting: under `O=C(O)c1ccc2nc(CN3CCC(Oc4ccnc(COc5ccc(F)cc5F)n4)CC3)n(C[C@@H]3CCO3)c2c1` [Compound 479, 2-{[4-({2-[(2,4-difluorophenoxy)methyl]pyrimidin-4-yl}oxy)piperidin-1-yl]methyl}-1-{[(2S)-oxetan-2-yl]methyl}-1H-1,3-benzodiazole-6-carboxylic acid] stands below 50 nM.

For `N#Cc1ccc(OCc2nc(OC3CCN(Cc4nc5ccc(C(=O)O)cc5n4C[C@@H]4CCO4)CC3)ccc2F)c(F)c1` [Compound 347], the EC50 at human GLP-1 receptor was below 50 nM. Same read-out and setting: under `CCn1cncc1Cn1c(CN2CCN(C(=O)c3ccc(COc4ccc(C)cc4C)o3)CC2)nc2ccc(C(=O)O)cc21` [Compound 55, 2-[(4-{5-[(2,4-dimethylphenoxy)methyl]furan-2-carbonyl}piperazin-1-yl)methyl]-1-[(1-ethyl-1H-imidazol-5-yl)methyl]-1H-1,3-benzodiazole-6-carboxylic acid] stands below 50 nM; under `N#Cc1cc(Cl)ccc1OCc1cc(OC2CCN(Cc3nc4ccc(C(=O)O)cc4n3Cc3cnco3)CC2)ccn1` [Compound 240, 2-{[4-({2-[(4-chloro-2-cyanophenoxy)methyl]pyridin-4-yl}oxy)piperidin-1-yl]methyl}-1-[(1,3-oxazol-5-yl)methyl]-1H-1,3-benzodiazole-6-carboxylic acid], below 50 nM. With `N#Cc1cc(Cl)ccc1OCc1cccc(CC2CCN(Cc3nc4ccc(C(=O)O)cc4n3Cc3ncco3)CC2)c1` [Compound 159, 2-{[4-({3-[(4-chloro-2-cyanophenoxy)methyl]phenyl}methyl)piperidin-1-yl]methyl}-1-[(1,3-oxazol-2-yl)methyl]-1H-1,3-benzodiazole-6-carboxylic acid], the EC50 at human GLP-1 receptor was below 50 nM.

As for `O=C(O)c1ccc2nc(CN3CCC(Cc4cccc(COc5ccc(Cl)cc5Cl)c4)CC3)n(Cc3ncco3)c2c1` [Compound 149, 2-{[4-({3-[(2,4-dichlorophenoxy)methyl]phenyl}methyl)piperidin-1-yl]methyl}-1-[(1,3-oxazol-2-yl)methyl]-1H-1,3-benzodiazole-6-carboxylic acid], at human GLP-1 receptor, the EC50 is below 50 nM. For `N#Cc1ccc(COc2cccc(C3CCN(C(=O)c4ccc(C(=O)O)nc4)CC3)n2)c(F)c1` [Example 91, 5-(4-(6-((4-Cyano-2-fluorobenzyl)oxy)pyridin-2-yl)piperidine-1-carbonyl)picolinic acid], the EC50 on human GLP-1 receptor was above 500 nM. The same measure, in the same setting: under `Cc1cccc(Oc2ccc(C(=O)N3CCN(Cc4nc5ccc(C(=O)O)cc5n4C[C@@H]4CCO4)CC3)cc2)c1` [Compound 21, 2-({4-[4-(3-methylphenoxy)benzoyl]piperazin-1-yl}methyl)-1-{[(2S)-oxetan-2-yl]methyl}-1H-1,3-benzodiazole-6-carboxylic acid] stands above 500 nM. Same read-out and setting: the result for `O=C(O)c1ccc2nc(CN3CCC(Oc4cccc(COc5ccc(Cl)cc5Cl)c4)CC3)n(Cc3ccno3)c2c1` [Example 208, 2-((4-(3-((2,4-Dichlorophenoxy)methyl)phenoxy)piperidin-1-yl)methyl)-1-(isoxazol-5-ylmethyl)-1H-benzo[d]imidazole-6-carboxylic acid] reads below 50 nM; that for `O=C(O)c1ccc2nc(CN3CCN(C(=O)c4ccc(OCc5ccc(Cl)cc5Cl)o4)CC3)n(C[C@@H]3CCO3)c2c1` [Example 73, (S)-2-((4-(5-((2,4-Dichlorobenzyl)oxy)furan-2-carbonyl)piperazin-1-yl)methyl)-1-(oxetan-2-ylmethyl)-1H-benzo[d]imidazole-6-carboxylic acid], above 500 nM. Take `Cn1cncc1Cn1c(CN2CCC(Oc3ccnc(COc4ccc(Cl)cc4F)c3)CC2)nc2ccc(C(=O)O)cc21` [Compound 267, 2-{[4-({2-[(4-chloro-2-fluorophenoxy)methyl]pyridin-4-yl}oxy)piperidin-1-yl]methyl}-1-[(1-methyl-1H-imidazol-5-yl)methyl]-1H-1,3-benzodiazole-6-carboxylic acid]: the half-maximal effective concentration (EC50) at human GLP-1 receptor was below 50 nM. On to `N#Cc1ccc(OCc2nccc(O[C@@H]3C[C@@H]4C[C@H]3CN4Cc3nc4ccc(C(=O)O)cc4n3C[C@@H]3CCO3)n2)c(F)c1` [Compound 506, 2-{[(1S,4S,5R)-5-({2-[(4-cyano-2-fluorophenoxy)methyl]pyrimidin-4-yl}oxy)-2-azabicyclo[2.2.1]heptan-2-yl]methyl}-1-{[(2S)-oxetan-2-yl]methyl}-1H-1,3-benzodiazole-6-carboxylic acid], for which, on human GLP-1 receptor, the EC50 was below 50 nM. Take `Cc1cc(C(C)C)ccc1Oc1cccc(C(=O)N2CCN(Cc3nc4ccc(C(=O)O)cc4n3C[C@@H]3CCO3)CC2)c1` [Example 89, (S)-2-((4-(3-(4-Isopropyl-2-methylphenoxy)benzoyl)piperazin-1-yl)methyl)-1-(oxetan-2-ylmethyl)-1H-benzo[d]imidazole-6-carboxylic acid]: the 50% effective concentration (EC50) at human GLP-1 receptor lay in the range of 50 to 500 nM. Take `O=C(O)c1cc(F)c2nc(CN3CCC(Oc4ccnc(COc5ccc(F)cc5F)c4)CC3)n(C[C@@H]3CCO3)c2c1` [Compound 496, 2-{[4-({2-[(2,4-difluorophenoxy)methyl]pyridin-4-yl}oxy)piperidin-1-yl]methyl}-4-fluoro-1-{[(2S)-oxetan-2-yl]methyl}-1H-1,3-benzodiazole-6-carboxylic acid]: at human GLP-1 receptor, the EC50 is below 50 nM. The same measure, in the same setting: the result for `O=C(O)c1cc(F)c2nc(CN3CCC(Oc4ccnc(COc5ccc(Cl)cc5F)n4)CC3)n(CC3(CF)CC3)c2c1` [Compound 324] reads below 50 nM.

As for `CN(C)c1cc(C(=O)N2CCN(Cc3nc4ccc(C(=O)O)cc4n3C[C@@H]3CCO3)CC2)ncn1` [Example 1, (S)-2-((4-(6-(Dimethylamino)pyrimidine-4-carbonyl)piperazin-1-yl)methyl)-1-(oxetan-2-ylmethyl)-1H-benzo[d]imidazole-6-carboxylic acid], at human GLP-1 receptor, the half-maximal effective concentration (EC50) lay within 50 to 500 nM. Same read-out and setting: under `CCn1cncc1Cn1c(CN2CCC(Cc3cccc(COc4ccc(Cl)cc4Cl)c3)CC2)nc2ccc(C(=O)O)cc21` [Compound 104, 2-{[4-({3-[(2,4-dichlorophenoxy)methyl]phenyl}methyl)piperidin-1-yl]methyl}-1-[(1-ethyl-1H-imidazol-5-yl)methyl]-1H-1,3-benzodiazole-6-carboxylic acid] stands below 50 nM; under `N#CCC1(Cn2c(CN3CCC(Oc4ccnc(COc5ccc(F)cc5Cl)n4)CC3)nc3ccc(C(=O)O)cc32)CC1` [Compound 325], below 50 nM.

Regarding `N#Cc1cc(F)c(F)cc1OCc1nccc(OC2CCN(Cc3nc4ccc(C(=O)O)cc4n3C[C@@H]3CCO3)CC2)n1` [Compound 504, 2-{[4-({2-[(2-cyano-4,5-difluorophenoxy)methyl]pyrimidin-4-yl}oxy)piperidin-1-yl]methyl}-1-{[(2S)-oxetan-2-yl]methyl}-1H-1,3-benzodiazole-6-carboxylic acid], on human GLP-1 receptor, the 50% effective concentration (EC50) was below 50 nM. Consider `O=C(O)c1ccc2nc(CN3CCC(Oc4cc(COc5ccc(Cl)cc5Cl)ccn4)CC3)n(C[C@@H]3CCO3)c2c1` [Example 178, (S)-2-((4-((4-((2,4-Dichlorophenoxy)methyl)pyridin-2-yl)oxy)piperidin-1-yl)methyl)-1-(oxetan-2-ylmethyl)-1H-benzo[d]imidazole-6-carboxylic acid], for which the half-maximal effective concentration (EC50) at human GLP-1 receptor lay in the range of 50 to 500 nM.
